Data from patent US20250154531A1, “METHODS FOR IMPROVED HOMOLOGOUS RECOMBINATION AND COMPOSITIONS THEREOF” (LIFE TECHNOLOGIES CORPORATION, priority 2017, published 2025).

Experiments:
[1] = system: genomic locus of beta-actin; test: Insertion of puromycin-P2A-OFP into beta-actin locus in human primary T cells, OFP-positive cells by flow cytometry; format: cell-based; settings: 30 μM in culture medium after electroporation, 48 hours
Description: Human peripheral blood mononuclear cells (PBMCs) were isolated from peripheral blood using Ficoll-Paque PLUS density gradient according to manufacturer's instructions. The human primary T cells were then isolated using DYNABEADS™ UNTOUCHED™ Human T Cells Kit and expanded using OPTMIZER™ CTS™ T-Cell Expansion SFM supplemented with 200 IU/mL of IL-2. The activation and expansion of human T cells were carried out using DYNABEADS™ Human T-Expander CD3/CD28 kit. On day 3 of activation, T cells were harvested for transfection.
For transfection of primary T cells, 1×10^5 cells were used per NEON® electroporation with voltage set at 1700V, pulse width set at 20 ms, and the number of pulses set at 1, respectively. To evaluate the effects of chemical modification on HDR efficiency, phosphorothioate or amine-modified nucleotides were added at specific positions of the oligonucleotides during chemical synthesis. The resulting modified oligonucleotides were then used to amplify the donor DNA. […] Cells were analyzed at 48 hours post transfection.
Linear ds- or ss-DNA donor could be degraded in vivo by exonucleases. […] At 48 hours post transfection, the percentages of OFP-positive cells were determined by flow cytometric analysis. […]
The disruption of NHEJ repair pathway is known to improve HDR efficiency. […] At 48 hours post transfection, we analyzed the cells by flow cytometry.

[2] = system: β-actin in NK-92; test: One-step knock-in of OFP with NHEJ inhibitor in NK-92 cells; format: cell-based; settings: NK-92, in media for two days after transfection
Description: (§1) Various cell types (NK-92, THP-1, Jurkat) were transfected with 1 μg TRUECUT™ Cas9 Protein v2 and 250 ng of β-actin gRNA, and 0.25 μg, 0.5 μg, or 1 μg OFP-Puro in electroporation buffer. Electroporation was performed using the NEON® Transfection System. After electroporation, the cells were cultured in media containing NHEJ inhibitor (Ku0060648) for two days, then analyzed via FACS analysis for SSC-A and OFP.

[3] = system: β-actin; test: One-step knock-in with two Cas9/gRNA complexes in primary T cells, knock-in efficiency; format: cell-based, human; settings: in media for two days after electroporation
Description: (§2) Human primary T cells were isolated and activated as in Example 10. On the third day after activation, cells were transfected with 1 μg TRUECUT™ Cas9 Protein v2 with 250 ng of β-actin gRNA, 1 μg TRUECUT™ Cas9 Protein v2 with 250 ng of a guide RNA targeting the T cell receptor (TRAC gRNA), and 1 μg OFP-Puro in electroporation buffer. Electroporation was performed using the NEON® Transfection System, program 24. After electroporation, the cells were cultured in media containing NHEJ inhibitor (Ku0060648) for two days, then analyzed via FACS analysis for SSC-A and OFP.

[4] = system: β-actin in Jurkat; test: One-step knock-in of OFP with NHEJ inhibitor in Jurkat cells; format: cell-based; settings: in media for two days after transfection
Description: as §1

[5] = system: β-actin in THP-1; test: One-step knock-in of OFP with NHEJ inhibitor in THP-1 cells; format: cell-based; settings: THP-1, in media for two days after transfection
Description: as §1

[6] = system: T cell receptor (TRAC gRNA); test: One-step knock-in with two Cas9/gRNA complexes in primary T cells, knock-out efficiency; format: cell-based, human; settings: in media for two days after electroporation
Description: as §2

| Compound | increase of the percentage of OFP-positive cells ([1]; amine-modified donor DNA) [fold] | increase of the percentage of OFP-positive cells ([1]; unmodified donor DNA) | knock-in efficiency [2] | knock-in efficiency (Q3) [3] | knock-in efficiency [4] | knock-in efficiency [5] | knock-out efficiency (Q3 and Q4) [6] |
| --- | --- | --- | --- | --- | --- | --- | --- |
| O=c1cc(N2CCOCC2)oc2c1ccc1ccccc12 [Nu7026, 2-(4-Morpholinyl)-4H-naphthol[1,2-b]pyran-4-one] | ~2 | approximately 5 fold |  |  |  |  |  |
| CCN1CCN(CC(=O)Nc2ccc(-c3cccc4c(=O)cc(N5CCOCC5)oc34)c3sc4ccccc4c23)CC1 [Ku-0060648, 4-Ethyl-N-[4-[2-(4-morpholinyl)-4-oxo-4H-1-benzopyran-8-yl]-1-dibenzothienyl]-1-piperazineacetamide] |  |  | increased knock-in efficiency | increased knock-in efficiency | increased knock-in efficiency | increased knock-in efficiency | without affecting knock-out efficiency |
